Patent publication US9340616B2, “Methods and compositions for heptameric targeting ligands” (The University of North Carolina at Chapel Hill, priority 2011, dated 2016)

Columns and labels:
EGFR-positive A431 cells = test: MTS cell proliferation assay, A431; format: cell-based; conditions: 10 μM, 24 h, positive control
Experimental: (§1) FIGS. 10A-C. Cellular toxicity of heptameric molecules. A) A431 (EGFR), B) SK-OV3 (HER2), and C) LNCaP cells were incubated with 1 uM of each of the heptamer molecules for 24 hours at 37° C. Cisplatin (10 uM) was also incubated with each of the cells as a positive control. Cells without incubation with any proteins or cisplatin were used as a negative control.
(§2) A CellTiter96 Aqueous Non-Radioactive Cell Proliferation Assay kit from Promega (Madison, Wis.) was used for MTS assay. Approximately 10^4 cells were seeded on each well in a 96-well plate and grown for 16 hours at 37° C. Each heptameric molecule was incubated with the cells for 24 hours and Cis-platinum (II) diamine dichloride (cisplatin, CDDP) (Sigma-Aldrich Chemical Co) was used as positive control. 20 μl of MTS/PMS solution was added into each well followed by incubation for 4 hours at 37° C. The absorbance at 490 nm was recorded using an ELISA plate reader.
(§3) A CellTiter96 Aqueous Non-Radioactive Cell Proliferation Assay kit from Promega (Madision, Wis.) was used for the MTS assay. Approximately 1×10^4 cells were seeded in each well of a 96-well plate and grown for 16 h at 37° C. Each heptameric molecule was incubated with the cells for 24 h. 10 μM Cis-platinum (II) diamine dichloride (Sigma-Aldrich Chemical Co, St Louis, Mo.) was used as a positive control. […] The absorbance at 490 nm was recorded using an ELISA plate reader.

[1] = system: HER2-positive SK-OV3 cells; test: MTS cell proliferation assay, SK-OV3; format: cell-based; conditions: 10 μM, 24 h, positive control
Experimental: as §1, §2, §3

N.N.[Cl][Pt][Cl] [cisplatin, Cis-platinum (II) diamine dichloride]
cell proliferation inhibited to (EGFR-positive A431 cells): 50%
cell proliferation inhibited to [1]: 50%
